Results from patent publication US20050282743A1, “Molecular interactions in cells” (Arbor Vita Corporation, priority 2001, published 2005).
Ends that are not written are not given here. Peptide text beside a SMILES is read from it. * marks the point of attachment. Biotin = O=C1N[C@H]2[C@H](CS[C@H]2CCCCC(=O)*)N1

What follows are molecules tested against T1, PDZ protein (GST-PDZ fusion) (Homo sapiens, UniProt Q13424) (assay: G' assay (10 uM PL peptide), results of TABLE 7 and TABLE 12). Details: PDZ Synt. 1 alpha, PDZ Domain 1.
T1 construct: made in house; host or cells: E. coli (DH5alpha, BL21 or JM109)
T1 sequence (Q13424 1-505): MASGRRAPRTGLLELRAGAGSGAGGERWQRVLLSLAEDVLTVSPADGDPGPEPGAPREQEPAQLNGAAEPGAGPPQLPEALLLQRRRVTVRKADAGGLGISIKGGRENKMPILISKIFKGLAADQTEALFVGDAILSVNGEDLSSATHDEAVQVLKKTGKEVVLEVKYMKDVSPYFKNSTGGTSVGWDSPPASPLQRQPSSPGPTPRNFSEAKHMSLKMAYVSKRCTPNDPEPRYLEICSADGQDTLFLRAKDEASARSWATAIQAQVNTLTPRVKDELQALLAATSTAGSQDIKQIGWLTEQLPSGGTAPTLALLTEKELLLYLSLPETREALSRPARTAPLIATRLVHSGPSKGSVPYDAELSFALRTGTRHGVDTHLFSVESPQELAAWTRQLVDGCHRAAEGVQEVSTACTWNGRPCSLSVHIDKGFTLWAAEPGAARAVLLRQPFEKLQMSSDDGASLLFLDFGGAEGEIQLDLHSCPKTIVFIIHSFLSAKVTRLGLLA
Type: binding
In short: (§1)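 Same steps as the G-zero format, apart from a peptide concentration of 10 uM in place of 20 uM in step 2. Amino-terminally biotinylated PL peptides bind GST-PDZ fusions, and retained peptide is quantified by 450 nm absorbance.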

Row | Molecule | Classification
1 | CC(C)C[C@H](NC(=O)[C@H](CCCNC(=N)N)NC(=O)CNC(=O)CNC(=O)[C@H](CCCNC(=N)N)NC(=O)[C@H](C)NC(=O)[C@@H]1CCCN1C(=O)[C@H](CCCNC(=N)N)NC(=O)CNC(=O)CNC(=O)[C@@H](NC(=O)[C@H](C)NC(=O)CCCC[C@@H]1SC[C@@H]2NC(=O)N[C@@H]21)C(C)C)C(=O)N[C@@H](CCC(N)=O)C(=O)NCC(=O)N[C@@H](CCCNC(=N)N)C(=O)N[C@@H](CCCNC(=N)N)C(=O)N[C@@H](CCC(N)=O)C(=O)N[C@H](C(=O)N[C@@H](CCC(N)=O)C(=O)N[C@H](C(=O)O)C(C)C)[C@@H](C)O [HPV E6 58 (modified)] (Biotin-AVGGRPARGGRLQGRRQTQV-OH; C-terminus assumed) | 2 (A450 nm 1-2)
2 | CC[C@H](C)[C@H](NC(=O)[C@H](Cc1c[nH]cn1)NC(=O)[C@H](C)NC(=O)[C@H](C)NC(=O)[C@H](CO)NC(=O)[C@@H]1CCCN1C(=O)[C@H](CCCNC(=N)N)NC(=O)[C@H](CC(=O)O)NC(=O)[C@H](CCCCN)NC(=O)[C@@H]1CCCN1C(=O)[C@H](CC(=O)O)NC(=O)[C@H](CCC(=O)O)NC(=O)CCCC[C@@H]1SC[C@@H]2NC(=O)N[C@@H]21)C(=O)N[C@H](C(=O)N[C@@H](CCC(=O)O)C(=O)N[C@@H](C)C(=O)N[C@@H](CC(C)C)C(=O)N[C@@H](CCC(=O)O)C(=O)N[C@H](C(=O)N[C@@H](CC(=O)O)C(=O)N[C@H](C(=O)O)C(C)C)[C@@H](C)O)C(C)C [PDZ-binding kinase (PBK)] (Biotin-EDPKDRPSAAHIVEALETDV-OH; C-terminus assumed) | 1 (A450 nm 0-1)
3 | ARHRVTSYTSSSVNVSSNL (Biotin-ARHRVTSYTSSSVNVSSNL) [IL-8RB] | 1 (A450 nm 0-1)
4 | CC(C)C[C@H](NC(=O)[C@H](C)NC(=O)[C@@H](NC(=O)[C@H](CCC(=O)O)NC(=O)[C@H](CCCNC(=N)N)NC(=O)[C@H](CCCNC(=N)N)NC(=O)CNC(=O)[C@H](CCC(N)=O)NC(=O)[C@H](CC(C)C)NC(=O)[C@H](CCCNC(=N)N)NC(=O)CNC(=O)CNC(=O)[C@H](CCCNC(=N)N)NC(=O)[C@H](C)NC(=O)[C@H](CO)NC(=O)[C@H](CCCNC(=N)N)NC(=O)CNC(=O)CNC(=O)[C@H](C)NC(=O)[C@H](C)NC(=O)CCCC[C@@H]1SC[C@@H]2NC(=O)N[C@@H]21)[C@@H](C)O)C(=O)O [HPV E6 33 (modified)] (Biotin-AAGGRSARGGRLQGRRETAL-OH; C-terminus assumed) | 3 (A450 nm 2-3)
5 | CC(C)C[C@H](NC(=O)[C@H](C)NC(=O)[C@H](CO)NC(=O)CNC(=O)[C@@H](NC(=O)CCCC[C@@H]1SC[C@@H]2NC(=O)N[C@@H]21)[C@@H](C)O)C(=O)N[C@@H](CCC(N)=O)C(=O)N[C@@H](C)C(=O)N[C@@H](Cc1c[nH]c2ccccc12)C(=O)N[C@@H](CCCNC(=N)N)C(=O)N[C@@H](Cc1c[nH]cn1)C(=O)N[C@H](C(=O)N[C@@H](CO)C(=O)N[C@@H](CCCNC(=N)N)C(=O)N[C@@H](CCC(N)=O)C(=O)N[C@@H](C)C(=O)N[C@H](C(=O)N[C@@H](CCC(=O)O)C(=O)N[C@@H](CO)C(=O)N[C@H](C(=O)N[C@H](C(=O)O)C(C)C)[C@@H](C)O)[C@@H](C)O)[C@@H](C)O [HPV E6 #66 (modified)] (Biotin-TGSALQAWRHTSRQATESTV-OH; C-terminus assumed) | 2 (A450 nm 1-2)
6 | CC(C)C[C@H](NC(=O)[C@H](CC(=O)O)NC(=O)[C@H](CO)NC(=O)[C@H](CCC(=O)O)NC(=O)CNC(=O)[C@H](Cc1ccc(O)cc1)NC(=O)[C@H](CC(C)C)NC(=O)[C@H](C)NC(=O)[C@H](CO)NC(=O)[C@H](CO)NC(=O)[C@H](Cc1ccccc1)NC(=O)[C@H](C)NC(=O)[C@H](C)NC(=O)[C@H](Cc1ccc(O)cc1)NC(=O)[C@H](CC(=O)O)NC(=O)[C@H](CC(C)C)NC(=O)[C@H](C)NC(=O)CNC(=O)[C@@H]1CCCN1C(=O)[C@@H](NC(=O)CCCC[C@@H]1SC[C@@H]2NC(=O)N[C@@H]21)C(C)C)C(=O)O [a-actinin 2] (Biotin-VPGALDYAAFSSALYGESDL-OH; C-terminus assumed) | 3 (A450 nm 2-3)
7 | TQGFPGPATWRRISSLESEV | 4 (A450 nm 3-4)
8 | CSCC[C@H](NC(=O)[C@H](C)NC(=O)[C@H](CCCNC(=N)N)NC(=O)CNC(=O)[C@@H](NC(=O)[C@H](Cc1c[nH]c2ccccc12)NC(=O)[C@H](CCCNC(=N)N)NC(=O)CNC(=O)CCCC[C@@H]1SC[C@@H]2NC(=O)N[C@@H]21)[C@@H](C)O)C(=O)N[C@@H](CO)C(=O)N[C@@H](C)C(=O)N[C@@H](Cc1c[nH]c2ccccc12)C(=O)N[C@@H](CCCCN)C(=O)N1CCC[C@H]1C(=O)N[C@H](C(=O)N[C@@H](CCCNC(=N)N)C(=O)N[C@@H](CCCNC(=N)N)C(=O)N[C@@H](CCC(=O)O)C(=O)N[C@H](C(=O)N[C@@H](CCC(=O)O)C(=O)N[C@H](C(=O)O)C(C)C)[C@@H](C)O)[C@@H](C)O [HPV E6 #35 (modified)] (Biotin-GRWTGRAMSAWKPTRRETEV-OH; C-terminus assumed) | 5 (A450 nm of 4 more than 2× repeated)

These molecules were tested against T2, PDZ protein (GST-PDZ fusion) (Homo sapiens, UniProt Q9BYB0) in the same assay as above. Details: PDZ SHANK3, PDZ Domain 1.
T2 construct: made in house; host or cells: E. coli (DH5alpha, BL21 or JM109)
T2 sequence (Q9BYB0 whole entry, the tested form may be a part): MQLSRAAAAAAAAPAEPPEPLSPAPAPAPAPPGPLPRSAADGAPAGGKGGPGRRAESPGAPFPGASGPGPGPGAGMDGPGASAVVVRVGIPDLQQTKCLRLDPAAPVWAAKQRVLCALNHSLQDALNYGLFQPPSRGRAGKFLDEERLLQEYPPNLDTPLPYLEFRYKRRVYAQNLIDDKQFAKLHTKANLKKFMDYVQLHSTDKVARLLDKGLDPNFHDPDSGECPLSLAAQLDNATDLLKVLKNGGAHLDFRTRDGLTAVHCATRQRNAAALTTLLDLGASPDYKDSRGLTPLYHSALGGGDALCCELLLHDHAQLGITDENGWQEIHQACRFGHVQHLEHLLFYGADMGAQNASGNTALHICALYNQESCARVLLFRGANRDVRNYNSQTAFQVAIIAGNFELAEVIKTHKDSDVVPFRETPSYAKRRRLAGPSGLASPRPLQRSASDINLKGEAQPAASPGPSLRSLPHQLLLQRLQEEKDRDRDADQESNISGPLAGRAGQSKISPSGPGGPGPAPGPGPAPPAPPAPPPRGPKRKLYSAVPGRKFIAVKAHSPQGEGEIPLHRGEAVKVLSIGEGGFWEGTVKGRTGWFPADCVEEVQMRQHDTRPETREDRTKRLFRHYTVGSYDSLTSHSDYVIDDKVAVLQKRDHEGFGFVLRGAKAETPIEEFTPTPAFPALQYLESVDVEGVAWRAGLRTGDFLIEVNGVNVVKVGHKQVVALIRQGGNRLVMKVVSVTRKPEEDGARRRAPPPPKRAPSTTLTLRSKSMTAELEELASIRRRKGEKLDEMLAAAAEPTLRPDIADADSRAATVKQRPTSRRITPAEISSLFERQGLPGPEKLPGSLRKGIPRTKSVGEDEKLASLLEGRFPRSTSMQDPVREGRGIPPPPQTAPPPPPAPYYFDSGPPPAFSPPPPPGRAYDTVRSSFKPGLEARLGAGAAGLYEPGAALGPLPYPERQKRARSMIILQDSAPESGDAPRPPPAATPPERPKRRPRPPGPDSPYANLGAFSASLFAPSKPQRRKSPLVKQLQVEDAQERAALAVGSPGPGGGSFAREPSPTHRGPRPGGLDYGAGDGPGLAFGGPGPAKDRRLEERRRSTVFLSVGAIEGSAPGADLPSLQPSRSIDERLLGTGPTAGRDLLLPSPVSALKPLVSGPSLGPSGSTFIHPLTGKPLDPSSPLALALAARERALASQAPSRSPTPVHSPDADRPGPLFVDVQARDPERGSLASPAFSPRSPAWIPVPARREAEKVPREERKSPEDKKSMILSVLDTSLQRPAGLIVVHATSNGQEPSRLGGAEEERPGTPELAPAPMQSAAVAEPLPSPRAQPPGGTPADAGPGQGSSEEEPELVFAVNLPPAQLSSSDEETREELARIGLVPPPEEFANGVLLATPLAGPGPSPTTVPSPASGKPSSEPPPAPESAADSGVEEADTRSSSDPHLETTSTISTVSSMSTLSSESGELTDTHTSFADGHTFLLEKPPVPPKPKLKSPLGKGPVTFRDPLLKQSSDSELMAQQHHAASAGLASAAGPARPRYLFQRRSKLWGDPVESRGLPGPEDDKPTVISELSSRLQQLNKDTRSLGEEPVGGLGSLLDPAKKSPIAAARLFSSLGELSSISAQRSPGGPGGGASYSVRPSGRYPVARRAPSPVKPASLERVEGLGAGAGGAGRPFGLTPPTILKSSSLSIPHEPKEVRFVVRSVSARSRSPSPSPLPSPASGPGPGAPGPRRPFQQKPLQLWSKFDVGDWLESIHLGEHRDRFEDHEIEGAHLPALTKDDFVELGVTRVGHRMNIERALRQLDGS
Type: binding
In short: as §1

Row | Molecule | Classification
9 | CC[C@H](C)[C@H](NC(=O)[C@H](CO)NC(=O)[C@H](CCC(=O)O)NC(=O)[C@H](Cc1ccc(O)cc1)NC(=O)[C@H](CC(=O)O)NC(=O)[C@H](CC(N)=O)NC(=O)[C@H](CCC(=O)O)NC(=O)[C@H](CCCCN)NC(=O)CCCC[C@@H]1SC[C@@H]2NC(=O)N[C@@H]21)C(=O)N[C@@H](CO)C(=O)N[C@@H](CC(=O)O)C(=O)N[C@@H](CC(C)C)C(=O)N[C@@H](CCC(N)=O)C(=O)N[C@@H](CCC(N)=O)C(=O)NCC(=O)N[C@@H](CCCNC(=N)N)C(=O)N[C@@H](CC(=O)O)C(=O)N[C@H](C(=O)N[C@H](C(=O)N[C@@H](CCCNC(=N)N)C(=O)N[C@@H](CC(C)C)C(=O)O)[C@@H](C)O)[C@@H](C)CC [PAG] (Biotin-KENDYESISDLQQGRDITRL-OH; C-terminus assumed) | 2 (A450 nm 1-2)
10 | LASKSAEEGKQIPDSLSTDL (Biotin-LASKSAEEGKQIPDSLSTDL) [Dock2] | 1 (A450 nm 0-1)
11 | CC[C@H](C)[C@H](NC(=O)[C@H](CC(=O)O)NC(=O)[C@H](CCC(=O)O)NC(=O)[C@H](CCCNC(=N)N)NC(=O)[C@@H](NC(=O)CCCC[C@@H]1SC[C@@H]2NC(=O)N[C@@H]21)[C@@H](C)O)C(=O)N[C@@H](Cc1ccc(O)cc1)C(=O)N[C@H](C(=O)N[C@@H](CC(N)=O)C(=O)N[C@@H](Cc1ccc(O)cc1)C(=O)N1CCC[C@H]1C(=O)N[C@H](C(=O)N[C@@H](Cc1ccccc1)C(=O)N[C@@H](CO)C(=O)N[C@@H](CCCNC(=N)N)C(=O)N[C@@H](CCCNC(=N)N)C(=O)N1CCC[C@H]1C(=O)N[C@@H](CCCCN)C(=O)N[C@H](C(=O)N[C@@H](CCCNC(=N)N)C(=O)N[C@H](C(=O)O)C(C)C)[C@@H](C)O)[C@@H](C)O)C(C)C [DNAM-1] (Biotin-TREDIYVNYPTFSRRPKTRV-OH; C-terminus assumed) | 2 (A450 nm 1-2)
12 | CC[C@H](C)[C@H](NC(=O)CNC(=O)[C@H](CO)NC(=O)[C@H](Cc1ccccc1)NC(=O)[C@@H](NC(=O)[C@H](CS)NC(=O)CNC(=O)CNC(=O)[C@H](C)NC(=O)[C@@H]1CCCN1C(=O)[C@@H](NC(=O)[C@@H]1CCCN1C(=O)CCCC[C@@H]1SC[C@@H]2NC(=O)N[C@@H]21)[C@@H](C)CC)[C@@H](C)O)C(=O)N[C@@H](Cc1ccccc1)C(=O)N1CCC[C@H]1C(=O)N[C@H](C(=O)N[C@@H](CC(C)C)C(=O)N[C@H](C(=O)N[C@@H](CO)C(=O)N1CCC[C@H]1C(=O)N[C@@H](CC(C)C)C(=O)O)[C@@H](C)O)[C@@H](C)O [KIA 1481] (Biotin-PIPAGGCTFSGIFPTLTSPL-OH; C-terminus assumed) | 3 (A450 nm 2-3)
13 | CC(C)C[C@H](NC(=O)CNC(=O)[C@@H](NC(=O)[C@H](CO)NC(=O)[C@H](CC(N)=O)NC(=O)[C@H](Cc1ccccc1)NC(=O)CNC(=O)[C@H](C)NC(=O)[C@H](C)NC(=O)[C@H](Cc1ccccc1)NC(=O)[C@@H](NC(=O)CCCC[C@@H]1SC[C@@H]2NC(=O)N[C@@H]21)[C@@H](C)O)[C@@H](C)O)C(=O)N1CCC[C@H]1C(=O)N[C@@H](Cc1c[nH]cn1)C(=O)N[C@@H](CO)C(=O)N[C@H](C(=O)N[C@H](C(=O)N[C@@H](CCCNC(=N)N)C(=O)N[C@H](C(=O)O)C(C)C)[C@@H](C)O)[C@@H](C)O [Neuroligin] (Biotin-TFAAGFNSTGLPHSTTRV-OH; C-terminus assumed) | 3 (A450 nm 2-3)
14 | PPATPSPRLALPAHHNATRL (Biotin-PPATPSPRLALPAHHNATRL) [Na+/Pi cotransporter 2] | 5 (A450 nm of 4 more than 2× repeated)
15 | CC(C)C[C@H](NC(=O)[C@H](C)NC(=O)[C@@H](NC(=O)[C@H](CCC(=O)O)NC(=O)[C@H](CCCNC(=N)N)NC(=O)[C@H](CCCNC(=N)N)NC(=O)CNC(=O)[C@H](CCC(N)=O)NC(=O)[C@H](CC(C)C)NC(=O)[C@H](CCCNC(=N)N)NC(=O)CNC(=O)CNC(=O)[C@H](CCCNC(=N)N)NC(=O)[C@H](C)NC(=O)[C@H](CO)NC(=O)[C@H](CCCNC(=N)N)NC(=O)CNC(=O)CNC(=O)[C@H](C)NC(=O)[C@H](C)NC(=O)CCCC[C@@H]1SC[C@@H]2NC(=O)N[C@@H]21)[C@@H](C)O)C(=O)O [HPV E6 33 (modified)] (Biotin-AAGGRSARGGRLQGRRETAL-OH; C-terminus assumed) | 2 (A450 nm 1-2)
16 | CC(C)C[C@H](NC(=O)[C@H](C)NC(=O)[C@@H](NC(=O)[C@@H](NC(=O)[C@H](Cc1c[nH]cn1)NC(=O)[C@H](CC(C)C)NC(=O)CNC(=O)[C@H](CCC(N)=O)NC(=O)CNC(=O)CNC(=O)[C@H](C)NC(=O)[C@H](C)NC(=O)[C@H](CCCNC(=N)N)NC(=O)[C@H](C)NC(=O)[C@H](CO)NC(=O)[C@H](CC(=O)O)NC(=O)[C@H](CC(=O)O)NC(=O)[C@H](Cc1c[nH]c2ccccc12)NC(=O)[C@H](C)NC(=O)CCCC[C@@H]1SC[C@@H]2NC(=O)N[C@@H]21)C(C)C)[C@@H](C)O)C(=O)O [LPAP] (Biotin-AWDDSARAAGGQGLHVTAL-OH; C-terminus assumed) | 3 (A450 nm 2-3)
